{
  "source": "patent US11925649B2",
  "about": "“Treatments for diabetic neuropathy” (University of Manitoba, priority 2010, dated 2024)",
  "key": {"[1]": {"system": "DRG sensory neurons from wildtype mice", "experiment": "Neurite outgrowth in sensory neuron cultures from wildtype mice", "assay_type": "cell-based, mouse", "details": "1 μM, 24 hr, low dose growth factors"}, "PGC-1α": {"system": "PGC-1α", "experiment": "PGC-1α expression in DRG of STZ-diabetic mice (Western blot)", "assay_type": "in vivo, mouse", "details": "daily s.c. injections for 8 weeks, lumbar DRG", "method": "(§1) Lumbar DRG were isolated and rinsed in ice-cold solution containing STE buffer (250 mmol/l sucrose, 10 mmol/l Tris-HCl, 1 mmol/l EDTA, pH 7.4), and then homogenized with a polytron homogenizer ([…] GmbH, Switzerland) using 3×7.5 s grinding pulses at 30 s intervals according to the method taught by Chowdhury et al. (2010, Diabetes 59: 1082-1091).\n(§2) Quantitative Western blotting was performed as previously disclosed by Chowdhury et al (2010) and Fernyhough et al. (1999, Diabetes 48: 881-889). DRG homogenates of 5-10 μg of protein were resolved on a 10% SDS-PAGE gel and electroblotted onto nitrocellulose membrane. Blots were then blocked in 5% nonfat milk containing 0.05% Tween-20, rinsed in PBS (pH 7.4) and incubated with the following antibodies: polyclonal anti-phospho AMPK (1:1000, Cell Signaling Technology, Danvers, MA, US), polyclonal anti-PGC-1α (1:1000, Santa Cruz Biotechnology Inc, Santa Cruz, CA, USA) and monoclonal anti-ATP synthase β subunit (1:2000 dilution, Mitosciences, Eugene, OR). Extracellular signal-regulated kinase (ERK; 1:2000, Covance, Princeton, NJ, US) was probed as a loading control (previous studies show this protein to not change level of expression in DRG in diabetes). […]"}, "[2]": {"system": "AMP-activated protein kinase (AMPK)", "experiment": "AMPK expression in DRG of STZ-diabetic mice (Western blot)", "assay_type": "in vivo, mouse", "details": "daily s.c. injections for 8 weeks, lumbar DRG", "method": "as §1, §2"}, "[3]": {"system": "STZ diabetic Sprague Dawley rats", "experiment": "Reversal of thermal hypoalgesia in diabetic rats, subcutaneous", "assay_type": "in vivo, rat", "details": "10 mg/kg daily s.c. from week 12; 20th week, 8 weeks of treatment", "method": "One group of adult male Sprague Dawley rats were made diabetic with a single intraperitoneal injection of 75 mg/kg STZ, while a second group of adult male rats were maintained as non-diabetic controls. The two groups of rats were monitored for the onset of […] by assessing thermal latency at 4-wk intervals."}, "[4]": {"system": "STZ-diabetic Swiss Webster mice", "experiment": "Reversal of diabetic sensory neuropathy with oral dosing", "assay_type": "in vivo, mouse", "method": "Male out-bred Swiss Webster mice were made diabetic with 2 injections of 90 mg/kg STZ on consecutive days. […] The mice were maintained for 8 weeks after STZ injections."}, "NDUFS3": {"system": "NDUFS3", "experiment": "NDUFS3 expression in DRG of STZ-diabetic mice (Western blot)", "assay_type": "in vivo, mouse", "details": "daily injections for 8 weeks", "method": "Quantitative Western blotting was performed as described in Example 15. Quantitative Western blotting was performed as previously disclosed by Chowdhury et al (2010) and Fernyhough et al. (1999). DRG homogenates of 5-10 μg of protein were resolved on a 10% SDS-PAGE gel and electroblotted onto nitrocellulose membrane. Blots were then blocked in 5% nonfat milk containing 0.05% Tween-20, rinsed in PBS (pH 7.4) and incubated with the following antibodies: monoclonal anti-cytochrome c oxidase subunit 4 (COX IV; 1:1000, Mitosciences, Eugene, OR, US), monoclonal anti-NADH dehydrogenase (ubiquinone) iron-sulfur protein 3 (NDUFS3, 1:1000, Mitosciences, Eugene, OR, US). Extracellular signal-regulated kinase (T-ERK; 1:2000, Covance, Princeton, NJ, US) was probed as a loading control. The blots were rinsed, incubated in Western blotting Luminol Reagent (Santa Cruz Biotechnology Inc., Santa Cruz, CA, US) and imaged using a BioRad Fluor-S image analyzer (BioRad, Hercules, CA, US)."}, "citrate synthase": {"system": "citrate synthase", "experiment": "Citrate synthase activity in DRG of STZ-diabetic mice", "assay_type": "in vivo, mouse", "details": "daily injections for 8 weeks, lumbar DRG", "method": "All measurements of enzymatic activities in lumbar DRG preparations were performed spectrophotometrically using a temperature controlled Ultrospec 2100 UV-visible spectrophotometer (Biopharmacia Biotech, Uppsala, Sweden) using the methods taught by Chowdhury et al. (2010). Complex I activity was measured as rotenone-sensitive NADH: cytochrome c reductase activity. Freshly prepared assay buffer (50 mmol/l K-phosphate pH 7.4, 1 mmol/l KCN, 100 μmol/l NADH) and 10 μg protein of DRG homogenate preparation were added to the cuvette and preincubated for 3 min at 25° C. After addition of 100 μmol/l oxidized cytochrome c, the reaction was followed for 2 minutes at 550 nm and then for 2 more minutes after addition of 25 μmol/l rotenone to allow calculation of the rotenone-sensitive Complex I activity. Complex IV activity was measured at 25° C. by monitoring the absorbance decrease of reduced cytochrome c at 550 nm as disclosed by Chowdhury et al. (2000, Clin. Chim. Acta 298: 157-173). […] Activity of the Krebs cycle enzyme, citrate synthase, was determined at 25° C. in medium containing 150 mmol/l Tris-HCl (pH 8.2), 0.02% laurylmaltoside, 0.1 mmol/l dithionitrobenzoic acid and 5 μg protein according to the method of Chowdhury et al (2007, Free Radic. Res. 41: 1116-1124). The reaction was initiated by addition of 100 μmol/l acetyl CoA and changes in absorbance at 412 nm were measured for 1 minute. […]"}, "[5]": {"system": "STZ diabetic C57Bl6J mice", "experiment": "Prophylactic subcutaneous injections in STZ diabetic mice", "assay_type": "in vivo, mouse", "description": "Male C57Bl6J mice were made diabetic with 2 injections of 90 mg/kg STZ on consecutive days, and then separated into four groups.\nTwo months after the second STZ injection, the function of the small sensory neurons in all five groups of mice were determined by measuring hind paw thermal response latency using a modified Hargreaves apparatus (UARD, San Diego, CA, US) with a heating rate of approximately 1° C./sec from a baseline of 30° C. and with a cut-off at 20 seconds as taught by Calcutt et al. (2004, Diabetologia 47: 718-724). […] Statistical analysis was done using the one-way ANOVA with post-hoc comparison using Tukey's test.\nThe structural integrity of small sensory neurons was assessed by measuring intraepidermal nerve fiber (IENF) profiles in hind paw plantar skin that was immersion fixed in 4% paraformaldehyde and processed to paraffin blocks. Sections (6 μm) were stained with the pan-neuronal marker PGP9.5 (1:1000, Biogenesis Ltd., Poole, UK) and viewed under a light microscope to allow counting of IENF and sub-epidermal nerve profiles (SNP) per unit length of the dermal: epidermal border using the technique taught by Beiswenger et al. (2008, Neurosci Lett. 442, 267-272). […] Statistical analyses were done using one-way ANOVA followed by Tukey's test.\nMotor nerve conduction velocity was measured under isoflurane anesthesia and core and nerve temperature were maintained at 37° C. using a heating pad and lamps following the teachings of Jolivalt et al, (2011, Diabetes Obesity and Metabolism, June 2 Epub ahead of print). The sciatic nerve was stimulated (5V, 0.05 ms pulse, square wave) with needle electrodes at the sciatic notch or ankle. […] The difference in response latencies of the M wave after stimulation at the sciatic notch and ankle was recorded as the time required for the motor nerve conduction between the stimulation sites. The distance between stimulation sites was measured on the surface of the fully extended hind limb and divided by the difference in M wave latencies to calculate sciatic motor nerve conduction velocity (MNCV). […]"}, "[6]": {"details": "daily oral gavage for 8 weeks from week 8"}, "[7]": {"details": "10 mg/kg daily s.c., two months after STZ, vs control mice"}},
  "data": [
    {"smiles": "CN1CCN(CC(=O)N2c3ccccc3C(=O)Nc3cccnc32)CC1", "note": "[pirenzepine, 11-[2-(4-methylpiperazin-1-yl)acetyl]-5H-pyrido[2,3-b][1,4]benzodiazepin-6-1]", "values": [
      {"measurement": "neurite outgrowth compared with LD control", "setting": "[1]", "value": 2, "unit": "fold"},
      {"measurement": "expression of PGC-1α", "setting": "PGC-1α", "value": "restored the expression"},
      {"measurement": "expression of P-AMPK", "setting": "[2]", "value": "restored the expression"},
      {"measurement": "expression of T-AMPK", "setting": "[2]", "value": "restored the expression"},
      {"measurement": "thermal latency", "setting": "[3]", "value": "dropped to approximate the levels in the non-diabetic control rats"},
      {"measurement": "loss of IENF", "setting": "[4]; [6]", "value": "reversed loss"},
      {"measurement": "loss of SNP", "setting": "[4]; [6]", "value": "reversed loss"},
      {"measurement": "thermal hypoalgesia", "setting": "[4]; [6]", "value": "reversed thermal hypoalgesia"},
      {"measurement": "efficacy of oral formulation", "setting": "[4]; dissolved in water, administered orally to mice", "value": "exhibited efficacy"},
      {"measurement": "expression of NDUFS3 mitochondrial protein", "setting": "NDUFS3", "value": "restored the expression"},
      {"measurement": "activity of citrate synthase", "setting": "citrate synthase", "value": "restored the deficits"},
      {"measurement": "hind paw thermal response latency", "setting": "[5]; [7]", "value": "not significantly different from the control non-diabetic mice"},
      {"measurement": "paw levels of IENF", "setting": "[5]; [7]", "value": "no significant changes"},
      {"measurement": "motor nerve conduction velocity", "setting": "[5]; diabetic mice", "value": "prevented deficits in motor nerve conduction velocity"}
    ]}
  ]
}
